Test results: patent US6355428B1, “Nucleic acid ligand interaction assays” (Genelabs Technologies, Inc., priority 1998, dated 2002)

Assays:
[1] = test system: GCGGTATTT (mixed) DNA duplex (SEQ ID NO: 12); test: SPA direct binding assay, mixed sequence indicator duplex
From the text: (§1) This technology can be applied to studies of ligand binding as disclosed herein. Example 13, below, describes the use of the assay in a high throughput screening method, using the SPA detection system. In this example, the first oligonucleotide is labeled with biotin, and is then tightly bound to streptavidin-coated SPA beads via the strong biotin/streptavidin interaction. These beads are impregnated with scintillant. The second oligonucleotide is labeled with a weak β-emitter, such as ^3H or ^33P. The radioactive second oligonucleotide is mixed with a solution of the beads under conditions at which the first and second oligonucleotides exist primarily as single strands, as described above. The signal will thus be low, as the oligonucleotides are non-hybridized. When ligand is added, the duplex form is stabilized, and the increased proximity of the radioactive isotope (e.g., ^3H, ^33P) in the second oligonucleotide causes the bead to which the first oligonucleotide is bound to scintillate. A signal thus indicates the presence of an effective binding ligand molecule; test sequences giving higher signals indicate the relative preference for different sequences.
The data in Table II compare raw signal counts from SPA assays using three different oligonucleotides and three concentrations (0, 100, and 500 nM) of the DNA binding drug distamycin. The oligonucleotides used were G/C-rich (CCGCGCC; SEQ ID NO: 6), A/T-rich (CTTTATTATTTT; SEQ ID NO: 2), or mixed sequence (GCGGTATTT; SEQ ID NO: 12) DNA duplexes. One strand of the duplex was synthesized with a 5′-biotin label, the other strand was labeled with ^33P, as described in Example 13.
Indicator oligonucleotides as shown in Table 1 were used in this assay, as shown in Table II and FIGS. 4A-E. One strand of each duplex was labeled with biotin at the 5′-end, and the complementary strand was 3′-labeled with ^33P. […] In the absence of ligand, and under these conditions, the oligonucleotides exist in single-stranded conformation. As a result, the oligonucleotide containing the radioactive label is not in close proximity to the SPA bead, and the light given off by the beads is low, i.e., at background. As a duplex-stabilizing ligand is added, the radioactive ^33P is brought into close proximity to the SPA bead, and the light emitted from the SPA bead increases. Accordingly, each of five known DNA-binding compounds was added in increasing concentrations, and the effect on scintillation count was observed, giving the results shown in FIGS. 4A-E.

[2] = test system: A/T rich, G/C rich and mixed sequence DNA oligonucleotides; test: SPA direct binding assay, sequence preference over panel of indicator oligonucleotides
From the text: as §1, with “Example 13, below, describes the use of the assay in a high throughput screening method, using the SPA detection system. In this example, the first oligonucleotide is labeled with biotin, and is then tightly bound to streptavidin-coated SPA beads via the strong biotin/streptavidin interaction.” left out
Indicator oligonucleotides as shown in Table 1 were used in this assay, as shown in Table II and FIGS. 4A-E. One strand of each duplex was labeled with biotin at the 5′-end, and the complementary strand was 3′-labeled with ^33P. The two complementary strands were incubated with streptavidin-coated SPA beads (Amersham, Arlington Heights, Ill.) at room temperature in a buffer containing 20 mM HEPES, pH 7.5, 0.1 mM EDTA, and 20 mM NaCl. In the absence of ligand, and under these conditions, the oligonucleotides exist in single-stranded conformation. As a result, the oligonucleotide containing the radioactive label is not in close proximity to the SPA bead, and the light given off by the beads is low, i.e., at background. As a duplex-stabilizing ligand is added, the radioactive ^33P is brought into close proximity to the SPA bead, and the light emitted from the SPA bead increases.

[3] = test system: 5′-CTTTTTTTTT-3′ (SEQ ID NO: 1) F/Q indicator pair; test: Fluorescence quenching direct binding assay, A/T rich DNA; settings: increasing netropsin; tRNA added; room temperature
Experimental: (§2) The specific examples described in this section employ fluorescence quenching as the detection system. In these examples, because conditions are adjusted to maintain the oligonucleotides in single-stranded form in the absence of the ligand, the assay starts with the system at a high or maximum level of fluorescence, and fluorescence generally decreases, depending on binding affinity, as the ligand is added.
(§3) In the Figure legends, RNA oligonucleotides are denoted by an “r” at the beginning of the sequence, and single stranded controls by “ss” at the end of the sequence. These single stranded sequence, are used alone in control experiments, which thus employ only an “F” strand and no complementary quenching strand. Any quenching of fluorescence that is not due to hybridization can thus be acounted for. Maximum quenching expected on complete hybridization of these oligonucleotides is 85-90%; therefore some signal remains after complete hybridization. […]
(§4) According to the general method described above, increasing amounts of netropsin or actinomycin, respectively, were added to mixtures of selected F/Q indicator oligonucleotide pairs, whose sequences are shown in the legends of FIGS. 1 and 3. […] The Figures show the level of fluorescence observed, relative to a control having no added drug, for each indicator pair (or single strand) as the level of added drug was increased. […]

[4] = test system: 5′-GCGGTATTT-3′ (SEQ ID NO: 12) F/Q indicator pair; test: Fluorescence quenching direct binding assay, mixed DNA; settings: increasing netropsin; tRNA added; room temperature
Experimental: as §2, §3, §4

CPM ([1]; 100 nM Distamycin, 10 mM Na+) | CPM ([1]; 100 nM Distamycin, 50 mM Na+) | CPM ([1]; 500 nM Distamycin, 10 mM Na+) | CPM ([1]; 500 nM Distamycin, 50 mM Na+) | Compound | sequence preference of binding (FIGS. 4A-E) ([2]; A/T rich 5′-AAAATAATAAAG, G/C rich 5′-GGCGCGG, mixed 5′-GTTGCAGATC, increasing drug) | duplex stabilization preference (Table II) ([2]; G/C-rich SEQ 6, A/T-rich SEQ 2, mixed SEQ 12 duplexes, 0, 100, 500 nM drug) | binding (decrease in fluorescence, FIG. 3A) [3] | binding (decrease in fluorescence, FIG. 3A) [4]
597 CPM | 868 CPM | 1951 CPM | 2234 CPM | Cn1cc(NC(=O)c2cc(NC(=O)c3cc(NC=O)cn3C)cn2C)cc1C(=O)NCCC(=N)N [Distamycin, distamycin] | preference for A/T-rich and mixed sequences | preferentially stabilizes the A/T-rich duplex and the mixed duplex | – | –
– | – | – | – | Cn1cc(NC(=O)c2cc(NC(=O)CN=C(N)N)cn2C)cc1C(=O)NCCC(=N)N [Netropsin, netropsin] | – | – | strongly prefers | binds well
